Target: T1, recombinant CETP (rCETP) (Homo sapiens, UniProt P11597)
T1 sequence (P11597 18-493): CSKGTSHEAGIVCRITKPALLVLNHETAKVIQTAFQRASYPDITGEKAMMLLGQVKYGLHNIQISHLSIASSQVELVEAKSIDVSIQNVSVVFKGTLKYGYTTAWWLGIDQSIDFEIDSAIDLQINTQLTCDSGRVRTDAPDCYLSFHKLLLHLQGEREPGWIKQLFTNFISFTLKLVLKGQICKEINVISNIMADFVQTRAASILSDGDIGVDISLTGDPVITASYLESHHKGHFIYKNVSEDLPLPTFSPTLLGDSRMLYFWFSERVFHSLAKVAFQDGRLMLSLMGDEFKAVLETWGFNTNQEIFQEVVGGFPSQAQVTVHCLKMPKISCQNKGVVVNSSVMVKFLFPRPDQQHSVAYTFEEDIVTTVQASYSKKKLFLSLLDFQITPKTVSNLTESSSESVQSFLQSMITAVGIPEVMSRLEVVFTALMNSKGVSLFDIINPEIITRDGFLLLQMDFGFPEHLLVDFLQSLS
Test: RTA assay using recombinant CETP (2% RTA)
Assay type: biochemical
Conditions: RTA assay in 2% human serum; read-out: IC50
Outline: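 Compounds preincubated 1 h at 37 °C with assay cocktail (CETP buffer: 50 mM Tris pH 7.4, 100 mM NaCl, 1 mM EDTA; human HDL acceptor); transfer started with [3H]cholesteryl oleate- or [3H]triolein-labelled LDL, 60 min at 37 °C. LDL PEG-precipitated; supernatant counted by scintillation, blank-corrected; IC50 from 4-parameter sigmoidal fit of % inhibition vs DMSO control.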
For `COc1ccc(-c2ccc(C(=O)O)cc2C)cc1-c1cnc(N2CC(OC)C2)nc1CN1C(=O)O[C@H](c2cc(C(F)(F)F)cc(C(F)(F)F)c2)[C@@H]1C` [Example 164], the IC50 was 0.016 µM. Work on `COC(=O)CCc1ccc(Cl)c(-c2ccc(N3CCC3)nc2CN2C(=O)O[C@H](c3cc(C(F)(F)F)cc(C(F)(F)F)c3)[C@@H]2C)c1` [Example 5] yielded an IC50 of 0.007 µM. For `COc1ccc(CCC(=O)O)cc1-c1ccc(N2CCC2)nc1CN1C(=O)O[C@H](c2cc(F)c(F)c(F)c2)[C@@H]1C` [Example 98], the IC50 was 0.223 µM. `COc1cc(F)c([C@H]2C[C@H](C(=O)OC)C2)cc1-c1ccc(N2CCC2)nc1CN1C(=O)O[C@H](c2cc(C(F)(F)F)cc(C(F)(F)F)c2)[C@@H]1C` [Example 38] showed an IC50 of 0.005 µM. `CCOC(=O)c1c(C)c(-c2ccc(OC)c(-c3ccc(N4CCC4)nc3CN3C(=O)O[C@H](c4cc(C(F)(F)F)cc(C(F)(F)F)c4)[C@@H]3C)c2)c(C)n1C` [Example 57] showed an IC50 of 0.007 µM. Work on `COc1ccc([C@H]2C[C@@H]2C(=O)O)cc1-c1ccc(N2CCC2)nc1CN1C(=O)O[C@H](c2cc(C(F)(F)F)cc(C(F)(F)F)c2)[C@@H]1C` [Example 75] yielded an IC50 of 0.009 µM. In the case of `CCOC(=O)[C@@H]1C[C@H]1c1ccc(OC)c(-c2ccc(N3CCC3)nc2CN2C(=O)O[C@H](c3ccc(F)c(F)c3)[C@@H]2C)c1` [Example 13], the IC50 is reported as 0.498 µM. With `COc1ccc(CCCO)cc1-c1ccc(N2CCC2)nc1CN1C(=O)O[C@H](c2cc(C(F)(F)F)cc(C(F)(F)F)c2)[C@@H]1C` [Example 264, (4S,5R)-3-({6-azetidin-1-yl-3-[5-(3-hydroxypropy)-2-methoxyphenyl]pyridin-2-yl}methyl)-5-[3,5-bis(trifluoromethyl)phenyl]-4-methyl-1,3-oxazolidin-2-one] the IC50 was 0.002 µM. Compound `COc1ccc(CCC(=O)O)cc1-c1ccc(N2CCC2)nc1CN1C(=O)O[C@H](c2cccc(C)c2)[C@@H]1C` [Example 223] has an IC50 of 0.289 µM. For `Cc1cc(C(=O)O)ccc1-c1cccc(-c2cnc(N3CCC3)nc2CN2C(=O)O[C@H](c3cccc(C(F)(F)F)c3)[C@@H]2C)c1` [Example 275], the IC50 was 0.605 µM. `COc1ccc([C@H]2CC[C@H](C(=O)O)CC2)cc1-c1c(C)cc(N2CCC2)nc1CN1C(=O)O[C@H](c2cc(F)cc(C(F)(F)F)c2)[C@@H]1C` [Example 292] showed an IC50 of 0.007 µM. For `COc1ccc(CO)cc1-c1ccc(N2CCC2)nc1CN1C(=O)O[C@H](c2cc(C(F)(F)F)cc(C(F)(F)F)c2)[C@@H]1C` [Example 258], the IC50 was 0.007 µM. Compound `C[C@H]1[C@@H](c2cc(C(F)(F)F)cc(C(F)(F)F)c2)OC(=O)N1Cc1nc(N2CCC2)ncc1-c1cc([C@H]2CC[C@H](C(=O)O)CC2)ccc1Cl` [Example 173] has an IC50 of 0.021 µM. Compound `COC(=O)c1c(C)c(-c2ccc(OC)c(-c3ccc(N4CCC4)nc3CN3C(=O)O[C@H](c4cc(C(F)(F)F)cc(C(F)(F)F)c4)[C@@H]3C)c2)nn1C` [Example 29] has an IC50 of 0.014 µM. Work on `COC(=O)c1cnc(-c2ccc(OC)c(-c3ccc(N4CCC4)nc3CN3C(=O)O[C@H](c4cc(C(F)(F)F)cc(C(F)(F)F)c4)[C@@H]3C)c2)cn1` [Example 30] yielded an IC50 of 0.133 µM. `COc1ccc(CC(C)(C)C(=O)O)cc1-c1ccc(N2CCC2)nc1CN1C(=O)O[C@H](c2cc(C(F)(F)F)cc(C(F)(F)F)c2)[C@@H]1C` [Example 122, 3-{3-[6-Azetidin-1-yl-2-({(4S,5R)-5-[3,5-bis(trifluoromethyl)phenyl]-4-methyl-2-oxo-1,3-oxazolidin-3-yl}methyl)pyridin-3-yl]-4-methoxyphenyl}-2,2-dimethylpropanoic acid] gave an IC50 of 0.015 µM. `COc1ccc([C@H]2CC[C@H](C(N)=O)CC2)cc1-c1ccc(N2CCC2)nc1CN1C(=O)O[C@H](c2cccc(C(F)(F)F)c2)[C@@H]1C` [Example 251] gave an IC50 of 0.024 µM. With `COC(=O)[C@H]1CC[C@H](c2ccc(Cl)c(-c3cnc(N4CCC4)nc3CN3C(=O)O[C@H](c4cc(C(F)(F)F)cc(C(F)(F)F)c4)[C@@H]3C)c2)CC1` [Example 146] the IC50 was 0.16 µM. Work on `COc1ccc(-c2nn(C)c(C(=O)O)c2C)cc1-c1ccc(N2CCC2)nc1CN1C(=O)O[C@H](c2cc(C(F)(F)F)cc(C(F)(F)F)c2)[C@@H]1C` [Example 94] yielded an IC50 of 0.012 µM.

Same assay, conditions: value printed with the example; serum level not stated there; read-out: RTA
For `COc1cc(F)c(C(C)C)cc1-c1cnc(N2CC(F)C2)nc1CN1C(=O)O[C@H](c2cc(C3CC3)cc(C(F)(F)F)c2)[C@@H]1C` [Example 303, (4S,5R)-5-[3-cyclopropyl-5-(trifluoromethyl)phenyl]-3-({2-(3-fluoroazetidin-1-yl)-5-[4-fluoro-2-methoxy-5-(propan-2-yl)phenyl]pyrimidin-4-yl}methyl)-4-methyl-1,3-oxazolidin-2-one], the IC50 was 0.098 µM.

Target: T2, endogenous CETP from serum (Homo sapiens, UniProt P11597)
T2 construct: For the transfer assay using endogenous CETP from serum (95% RTA); from tissue; host or cells: human serum
T2 sequence (P11597 18-493): T1 sequence (P11597 18-493)
Test: RTA assay using endogenous CETP from serum (95% RTA)
Assay type: biochemical
Conditions: RTA assay in 95% human serum, labeled with an asterisk
Method: In Vitro Radioactive Assays of CETP-Catalyzed CE and TG Transfer (RTA Assay)
Reagents and sources are: [3H] cholesteryl oleate (GE #TRK.886), [3H] Triolein (Perkin-Elmer NET-431), Butylated hydroxyl toluene (Aldrich, #D4740-4), DOPC (Sigma, #P6354), Sodium Bromide (Fisher scientific #5255-500), PEG 8000 (Fisher, #BP233-1), and human HDL (Intracel Corp #RP-036).
An in vitro assay for determining IC50's to identify compounds that inhibit CETP transfer activity is performed based on a modification of a published method (Morton and Zilversmit, (1981) A plasma inhibitor of triglyceride and cholesteryl ester transfer activities, J. Biol. Chem. 256(23), 11992-11995). The ability of inhibitors to alter CETP activity is performed using two different assays: one using recombinant CETP and one using an edogenous plasma source of CETP. Both assays measure the transfer of [3H] cholesteryl oleate or [3H]triolein from exogenous LDL to HDL.
Radiolabeled donor particles are generated by first combining 100 μl of 200 μM butylated hydroxyl toluene in CHCl3, 216 μL of 21.57 mM DOPC in EtOH, and either 500 μCi [3H]-triolein (Perkin Elmer #NET-431) or 500 μCi [3H]-cholesteryl oleate (GE #TRK886) in a glass tube. Reagents are mixed, dried under nitrogen, and then resuspended in 2 mL of 50 mM Tris, 27 μM EDTA at pH 7.4. After a brief vortex, the solution is sonicated until clear and mixed with 20 mL of fresh human serum. The mixture is incubated overnight at 37° C. The [3H] labeled LDL substrate is separated at 1.063 g/ml density by sequential ultracentrifugal flotation in NaBr according to the method by (Havel, Eder et al. 1955; Chapman, Goldstein et al. 1981). Once isolated the particles are dialyzed 3× in CETP buffer (50 mM Tris, pH 7.4, 100 mM NaCl, 1 mM EDTA). Human HDL is purchased from Intracel and used as the acceptor particles.
Transfer assays are performed in a 96-well v-bottom polypropylene plate. […] After mixing, plates are counted by liquid scintillation. […]
With `COc1ccc(CCC(=O)O)cc1-c1cnc(N2CCC2)nc1CN1C(=O)O[C@H](c2cccc(F)c2)[C@@H]1C` [Example 277] the IC50 was 0.035 µM. For `Cc1cc(C(=O)O)ccc1-c1cc(-c2cnc(N3CCC3)nc2CN2C(=O)O[C@H](c3cc(C(F)(F)F)cc(C(F)(F)F)c3)[C@@H]2C)c(F)cc1F` [Example 170], the IC50 was 0.11 µM. Work on `COC(=O)c1ccc(-c2cc(-c3cnc(N4CCC4)nc3CN3C(=O)O[C@H](c4cc(C(F)(F)F)cc(C(F)(F)F)c4)[C@@H]3C)c(F)cc2F)c(C)c1` [Example 142] yielded an IC50 of 0.145 µM.

Tested on: not given
Test: not given
Conditions: patients treated with anacetrapib; cited from earlier work
For `COc1cc(F)c(C(C)C)cc1-c1ccc(C(F)(F)F)cc1CN1C(=O)O[C@H](c2cc(C(F)(F)F)cc(C(F)(F)F)c2)[C@@H]1C` [anacetrapib], the increase in mortality is listed as “unlikely”.

Same assay, conditions: patients, with baseline statin therapy, compared with just a statin; cited from earlier work
In the case of `COc1cc(F)c(C(C)C)cc1-c1ccc(C(F)(F)F)cc1CN1C(=O)O[C@H](c2cc(C(F)(F)F)cc(C(F)(F)F)c2)[C@@H]1C` [anacetrapib], the “decrease of LDL-C” value is given as 40% and the “increase of HDL-C” value is given as 138%.

Reference: patent US9221834B2 (Merck Sharp & Dohme Corp., priority 2010, dated 2015)
